{"source": "ChEMBL document CHEMBL1151272", "about": "“Anti-inflammatory acylphloroglucinol derivatives from Hops (Humulus lupulus)” (J Nat Prod, 2005)", "key": {"[1]": {"biological_target": "T1, Prostaglandin G/H synthase 1 (Ovis aries, UniProt P05979)", "T1 sequence (P05979 whole entry)": "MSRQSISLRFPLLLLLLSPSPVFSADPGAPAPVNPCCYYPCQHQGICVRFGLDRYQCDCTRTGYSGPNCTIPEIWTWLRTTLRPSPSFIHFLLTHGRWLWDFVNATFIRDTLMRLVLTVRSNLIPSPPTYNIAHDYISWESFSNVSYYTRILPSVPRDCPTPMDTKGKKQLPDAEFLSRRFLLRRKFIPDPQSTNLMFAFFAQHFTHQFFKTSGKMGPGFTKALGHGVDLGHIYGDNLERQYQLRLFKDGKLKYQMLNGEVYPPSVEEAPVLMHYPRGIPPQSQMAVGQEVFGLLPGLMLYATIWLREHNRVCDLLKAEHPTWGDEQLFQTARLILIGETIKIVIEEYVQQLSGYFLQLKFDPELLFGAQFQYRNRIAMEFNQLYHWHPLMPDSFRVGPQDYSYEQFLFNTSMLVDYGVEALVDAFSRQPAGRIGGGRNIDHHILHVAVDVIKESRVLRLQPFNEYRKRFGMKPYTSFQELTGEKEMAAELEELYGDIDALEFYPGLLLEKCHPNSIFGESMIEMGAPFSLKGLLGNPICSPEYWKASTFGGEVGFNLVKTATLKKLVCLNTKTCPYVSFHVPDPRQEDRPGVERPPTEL", "test": "Inhibition of sheep COX1 measured by oxygen consumption; call rule not given here"}, "[2]": {"biological_target": "T2, Prostaglandin G/H synthase 1 (Ovis aries) (UniProt P05979)", "T2 sequence (whole entry)": "T1 sequence (P05979 whole entry)", "test": "Inhibition of sheep COX1 measured by oxygen consumption at 100 uM"}}}
{"smiles": "CCC(C)C(=O)c1c(O)cc(O)cc1O[C@@H]1O[C@H](CO)[C@@H](O)[C@H](O)[C@H]1O", "note": "(stereo partly specified)", "values": [{"measurement": "IC50", "setting": "[1]", "result": 131, "unit": "µM"}]}
{"smiles": "Oc1cc(O)cc(O)c1", "note": "[PHLOROGLUCINOL]", "values": [{"measurement": "AC50", "setting": "[1]", "result": "Active"}]}
{"smiles": "CC(C)C(=O)c1c(O)cc(O)cc1O", "note": "[PHLOROISOBUTYROPHENONE]", "values": [{"measurement": "IC50", "setting": "[1]", "result": 3.8, "unit": "µM"}]}
{"smiles": "CC(C)C(=O)c1c(O)cc(O)cc1O[C@@H]1O[C@H](CO)[C@@H](O)[C@H](O)[C@H]1O", "values": [{"measurement": "IC50", "setting": "[1]", "result": 23.7, "unit": "µM"}]}
{"smiles": "CC(C)CC(=O)c1c(O)cc(O)cc1O[C@@H]1O[C@H](CO)[C@@H](O)[C@H](O)[C@H]1O", "values": [{"measurement": "inhibition", "setting": "[2]", "result": 12, "unit": "%"}]}
{"smiles": "CC(C)C(=O)c1c(O)cc(O[C@@H]2O[C@H](CO)[C@@H](O)[C@H](O)[C@H]2O)cc1O", "values": [{"measurement": "IC50", "setting": "[1]", "result": 58.7, "unit": "µM"}]}
